Assay: in vitro
Settings: human

half-life (liver microsomes) [min] | half-life (microsomes) [min] | SMILES
15 |  | Cc1nc2ccccc2n1-c1ccc(C(=O)N(C)[C@@H]2CCN(C3CCC3)C2)cc1
> 30 |  | Cc1nc2ccccc2n1-c1ccc(C(=O)N(C)[C@@H]2CCN(C3CCCC3)C2)cc1
 | > 30 | Cc1nc2ccccc2n1-c1ccc(C(=O)N(C)[C@@H]2CCN(C3CCCCC3)C2)cc1
